Source: patent US9549556B2, “Macrocyclic picolinamides as fungicides” (DOW AGROSCIENCES LLC, priority 2013, dated 2017)
Like-named read-outs stand apart in the source and are kept apart here.

Key:
Puccinia triticina = experiment: Wheat brown rust (PUCCRT) disease control on wheat seedlings; type: in vivo; settings: 121.5 g/H, low volume (track spray) application, read-out: PUCCRT disease control rating (% Control)
Septoria tritici = experiment: Leaf blotch of wheat (SEPTTR) disease control on wheat seedlings; type: in vivo, Mycosphaerella graminicola (anamorph Septoria tritici); settings: Zymoseptoria tritici, 121.5 g/H, low volume (track spray) application, read-out: SEPTTR disease control rating (% Control)
Description: Evaluation of Fungicidal Activity: Leaf Blotch of Wheat (Mycosphaerella graminicola; Anamorph: Septoria tritici; Bayer Code […]) Technical grades of materials were dissolved in acetone, which were then mixed with nine volumes of water containing 110 ppm Triton X-100. The fungicide solutions were applied onto wheat seedlings using an automated booth sprayer to run-off. All sprayed plants were allowed to air dry prior to further handling. All fungicides were evaluated using the aforementioned method for their activity vs. all target diseases. Wheat leaf blotch and brown rust activity were also evaluated using track spray applications, in which case the fungicides were formulated as EC formulations, containing 0.1% Trycol 5941 in the spray solutions. Wheat plants (variety Yuma) were grown from seed in a greenhouse in 50% mineral soil/50% soil-less Metro mix until the first leaf was fully emerged, with 7-10 seedlings per pot. These plants were inoculated with an aqueous spore suspension of Septoria tritici either prior to or after fungicide treatments. After inoculation the plants were kept in 100% relative humidity (one day in a dark dew chamber followed by two to three days in a lighted dew chamber at 20° C.) to permit spores to germinate and infect the leaf. The plants were then transferred to a greenhouse set at 20° C. for disease to develop. When disease symptoms were fully expressed on the 1st leaves of untreated plants, infection levels were assessed on a scale of 0 to 100 percent disease severity. Percent disease control was calculated using the ratio of disease severity on treated plants relative to untreated plants.

Leptosphaeria nodorum = experiment: Wheat glume blotch (LEPTNO) disease control; type: in vivo; settings: 1 DP, 100 ppm
Uncinula necator = experiment: Grape powdery mildew (UNCINE) disease control; type: in vivo; settings: 1 DP, 100 ppm
Erysiphe cichoracearum = experiment: Powdery mildew of cucumber (ERYSCI) disease control; type: in vivo; settings: 1 DP, 100 ppm
Cercospora beticola = experiment: Leaf spot of sugar beets (CERCBE) disease control; type: in vivo; settings: 1 DP, 100 ppm, sugar beet
[1] = test system: Blumeria graminis f. sp. hordei; experiment: Barley powdery mildew (ERYSGH) disease control; type: in vivo; settings: 1 DP, 100 ppm
Rhyncosporium secalis = experiment: Barley scald (RHYNSE) disease control; type: in vivo; settings: 1 DP, 100 ppm
Pyricularia oryzae = type: in vivo, Magnaporthe grisea (anamorph Pyricularia oryzae); settings: 1 DP, 100 ppm, rice
Alternaria solani = experiment: Tomato early blight (ALTESO) disease control; type: in vivo; settings: 1 DP, 100 ppm
[2] = test system: Colletotrichum lagenarium; experiment: Cucumber anthracnose (COLLLA) disease control; type: in vivo, Glomerella lagenarium (anamorph Colletotrichum lagenarium); settings: 1 DP, 100 ppm

CCCC[C@H]1[C@H](C)OC(=O)[C@@H](NC(=O)c2nccc(OC)c2OC(C)=O)COC[C@@H]1OCC1CC1 [Compound 9]
pest or weed control at 121.5 g/ha (Puccinia triticina; 24 h, 1DP (1 Day Protectant)): > 70%
pest or weed control at 121.5 g/ha (Puccinia triticina; 72 h, 3DC (3 Day Curative)): > 70%
pest or weed control at 121.5 g/ha (Septoria tritici; 24 h, 1DP (1 Day Protectant)): > 70%
pest or weed control at 121.5 g/ha (Septoria tritici; 72 h, 3DC (3 Day Curative)): > 70%
LEPTNO disease control rating (% Control) (Leptosphaeria nodorum): A (>70)
UNCINE disease control rating (% Control) (Uncinula necator): A (>70)
ERYSCI disease control rating (% Control) (Erysiphe cichoracearum): B (≦70)
CERCBE disease control rating (% Control) (Cercospora beticola): B (≦70)
ERYSGH disease control rating (% Control) [1]: B (≦70)
RHYNSE disease control rating (% Control) (Rhyncosporium secalis): A (>70)
PYRIOR disease control rating (% Control) (Pyricularia oryzae): B (≦70)
ALTESO disease control rating (% Control) (Alternaria solani): B (≦70)
COLLLA disease control rating (% Control) [2]: A (>70)
